According to patent US12544442B2, “Biocompatible nanomagnetic discs and methods of use thereof” (priority 2018, dated 2026):

Tests used:
HL60 cells [1] = test: Rat HL60/estradiol tumor model with magnetic field exposure, tumor histopathology (H&E); type: in vivo; settings: paclitaxel treated group, 40 mg/kg body weight; H&E 400×
Description: (§1) Efficacy studies of BMND were conducted in a rat model. Rats were injected with HL60 cells and estradiol to induce the generation of tumors on various organs. This is a well-established rat model of human tumors. The positive control comprised six healthy rats with no tumor induction and no drug treatment. The negative control comprised six tumor bearing rats with no drug treatment. The test groups included six rats in each group, all induced for tumors, and treated with either paclitaxel (gold standard chemotherapeutic; 40 mg/KG body weight), anti-HL60-BMND at 100 μg/kG body weight, or anti-HL60-BMND at 200 μg/KG body weight.
(§2) Procedure: Rats were inoculated with estradiol-17ß (1.7 mg/pellet) before an injection of 1×10^7 HL60 cells intravenously into tail vein. If tumor observed at various organs, the tumor size could be measured in three dimensions with calipers every 2 days starting at day 7. If tumor was not observed/not palpable, then tumor induction was confirmed by histopathology. […] After confirmation of tumor induction by histopathology, treatment was started.
The rats were exposed to magnetic field according to the following protocol. […] The following parameters were recorded: Treatment Time—60 minutes; Magnetic field intensity—90 G (Gauss); Frequency—20 Hz. […]
Confirmation of tumor was assessed as follows: Formalin fixed tissue of tumor area samples from various organs were received. […]

HL60 cells [2] = test: Rat HL60/estradiol tumor model with magnetic field exposure, cancer cell count in blood; type: in vivo
Description: as §1, §2
The rats were exposed to magnetic field according to the following protocol. Rats strapped to the VFVF magnetizer as described above. The device was switched on to apply magnetic force of known intensity, frequency and duration to cause “flip/flop” action in the biocompatible magnetic nanodiscs. This application of oscillating field force is expected to cause the Nanomagnetic particles bound to the cell to “flip/flop.” This action is expected to damage the cell wall leading to apoptosis. The following parameters were recorded: Treatment Time—60 minutes; Magnetic field intensity—90 G (Gauss); Frequency—20 Hz. Waveform—sinusoidal
Cancer cell count in blood was ascertained for the treatment groups.

[3] = Paclitaxel 40 mg/kg body weight
[4] = STD group (Paclitaxel 40 mg/kg), baseline

For `CC(=O)O[C@H]1C(=O)[C@@]2(C)[C@H]([C@H](OC(=O)c3ccccc3)[C@]3(O)C[C@H](OC(=O)[C@H](O)[C@@H](NC(=O)c4ccccc4)c4ccccc4)C(C)=C1C3(C)C)[C@]1(OC(C)=O)CO[C@@H]1C[C@@H]2O` [Paclitaxel], the “tumor histopathology (FIG. 8C)” value (HL60 cells [1]) was “neoplastic cells (small arrow) with stromal reaction, mitotic figures (arrow head), inflammation and necrosis (large arrow)”, the “Apoptotic cancer cells present per ml in the blood, After treatment 144 hrs” value (HL60 cells [2]; [3]) was 5.20 × 10^3 per ml in the blood and the “Viable cancer cells present per ml of blood, After treatment 144 hrs” value (HL60 cells [2]; [3]) was 5.47 × 10^3 per ml of blood. For the same compound, the “Apoptotic cancer cells present per ml in the blood, Before treatment” value (HL60 cells [2]; [4]) was 852 per ml in the blood and the “Viable cancer cells present per ml of blood, Before treatment” value (HL60 cells [2]; [4]) was 16.08 × 10^3 per ml of blood.
